The values below come from ChEMBL document CHEMBL4673355, “Thiacalixarene based quaternary ammonium salts as promising antibacterial agents” (Bioorg Med Chem, 2021).

The structures appear in SMILES notation. In brackets after ≈: the same amount, converted by molar mass. Bounds are passed on as bounds.

For one data set, the system named is Pseudomonas. Kind of data set: Antibacterial activity against methicillin- resistant Pseudomonas spp. clinical isolate 6 assessed as reduction in bacterial growth incubated for 24 hrs by CLSI broth microdilution method. The format is functional. On the technique in general: Broth dilution looks for growth in wells or tubes with falling amounts of substance.
Data set [1] concerns Staphylococcus aureus. Nature of the data set: Antibacterial activity against methicillin- resistant Staphylococcus aureus 983 clinical isolate assessed as reduction in bacterial growth incubated for 24 hrs by CLSI broth microdilution method. The format is functional.
Data set [2] concerns Staphylococcus aureus. Kind of data set: Bactericidal activity against Staphylococcus aureus ATCC 29213 assessed as reduction in bacterial growth incubated for 24 hrs followed by replating on MH broth and further incubated for 24 hrs by CLSI broth microdilution method. The format is functional. As to conditions: Staphylococcus aureus, ATCC 29213; time 48 hrs; read-out: MBC.

Data set [3] concerns Bacillus subtilis. Nature of the data set: Antibacterial activity against Bacillus subtilis 168 assessed as reduction in bacterial growth incubated for 24 hrs by CLSI broth microdilution method. The format is functional.
The subject of data set [4] is Klebsiella pneumoniae. Nature of the data set: Bactericidal activity against Klebsiella pneumoniae ATCC 1813 assessed as reduction in bacterial growth incubated for 24 hrs followed by replating on MH broth and further incubated for 24 hrs by CLSI broth microdilution method. The format is functional.
Data set [5] is described as follows: Antibacterial activity against […] resistant Moraxella sp.764 clinical isolate assessed as reduction in bacterial growth incubated for 24 hrs by CLSI broth microdilution method. The format is functional. As to conditions: Moraxella catarrhalis.
In data set [6] the test system is Acinetobacter. Kind of data set: Antibacterial activity against […] resistant Acinetobacter spp. clinical isolate 5 assessed as reduction in bacterial growth incubated for 24 hrs by CLSI broth microdilution method. The format is functional.
The subject of data set [7] is Staphylococcus aureus. Nature of the data set: Antibacterial activity against methicillin- resistant Staphylococcus aureus 967 clinical isolate assessed as reduction in bacterial growth incubated for 24 hrs by CLSI broth microdilution method. The format is functional.
Data set [8] relates to Staphylococcus epidermidis. Kind of data set: Bactericidal activity against Staphylococcus epidermidis assessed as reduction in bacterial growth incubated for 24 hrs followed by replating on MH broth and further incubated for 24 hrs by CLSI broth microdilution method. As to conditions: Staphylococcus epidermidis, read-out: MBC. The format is functional.
Data set [9] relates to Bacillus subtilis. Nature of the data set: Bactericidal activity against Bacillus subtilis 168 assessed as reduction in bacterial growth incubated for 24 hrs followed by replating on MH broth and further incubated for 24 hrs by CLSI broth microdilution method. The format is functional. As to conditions: Bacillus subtilis, 168, 24 h.
In data set [10] the test system is Acinetobacter. Nature of the data set: Antibacterial activity against […] resistant Acinetobacter spp. clinical isolate 3 assessed as reduction in bacterial growth incubated for 24 hrs by CLSI broth microdilution method. The format is functional.
The test system of the next data set is Proteus sp. Kind of data set: Antibacterial activity against […] resistant Proteus sp. clinical isolate 17 assessed as reduction in bacterial growth incubated for 24 hrs by CLSI broth microdilution method. The format is functional. The conditions noted are these: Proteus sp. (in: enterobacteria).
Data set [11] concerns Escherichia coli. Kind of data set: Bactericidal activity against Escherichia coli ATCC 25922 assessed as reduction in bacterial growth incubated for 24 hrs followed by replating on MH broth and further incubated for 24 hrs by CLSI broth microdilution method. The format is functional.
Data set [12] has as its system Staphylococcus haemolyticus. Kind of data set: Antibacterial activity against methicillin- resistant Staphylococcus haemolyticus 837 assessed as reduction in bacterial growth incubated for 24 hrs by CLSI broth microdilution method. The format is functional.
The test system of data set [13] is Staphylococcus aureus. Kind of data set: Antibacterial activity against methicillin- resistant Staphylococcus aureus 25 clinical isolate assessed as reduction in bacterial growth incubated for 24 hrs by CLSI broth microdilution method. The format is functional.
The test system of data set [14] is Staphylococcus aureus. Kind of data set: Antibacterial activity against methicillin- resistant Staphylococcus aureus 2020 clinical isolate assessed as reduction in bacterial growth incubated for 24 hrs by CLSI broth microdilution method. The format is functional.
The nature of data set [15]: Antibacterial activity against […] resistant Moraxella sp.765 clinical isolate assessed as reduction in bacterial growth incubated for 24 hrs by CLSI broth microdilution method. The format is functional. As to conditions: Moraxella catarrhalis.
Data set [16] can be described thus: Antibacterial activity against […] resistant Moraxella sp.829 clinical isolate assessed as reduction in bacterial growth incubated for 24 hrs by CLSI broth microdilution method. The conditions noted are these: Moraxella catarrhalis. The format is functional.
Data set [17] deals with Acinetobacter. Nature of the data set: Antibacterial activity against […] resistant Acinetobacter spp. clinical isolate 1 assessed as reduction in bacterial growth incubated for 24 hrs by CLSI broth microdilution method. The format is functional.
In data set [18] the test system is Staphylococcus intermedius. Nature of the data set: Antibacterial activity against methicillin- resistant Staphylococcus intermedius 1143 clinical isolate assessed as reduction in bacterial growth incubated for 24 hrs by CLSI broth microdilution method. The format is functional.
The test system of data set [19] is Pseudomonas aeruginosa. Nature of the data set: Bactericidal activity against Pseudomonas aeruginosa ATCC 27853 assessed as reduction in bacterial growth incubated for 24 hrs followed by replating on MH broth and further incubated for 24 hrs by CLSI broth microdilution method. The format is functional.
The subject of data set [20] is Klebsiella sp. Kind of data set: Antibacterial activity against […] resistant Klebsiella sp. clinical isolate 11 assessed as reduction in bacterial growth incubated for 24 hrs by CLSI broth microdilution method. The format is functional.
Data set [21] relates to Klebsiella sp. Kind of data set: Antibacterial activity against […] resistant Klebsiella sp. clinical isolate 12 assessed as reduction in bacterial growth incubated for 24 hrs by CLSI broth microdilution method. The format is functional.
Data set [22] in a line: Selectivity index, ratio of CC50 for human HSF cells to MIC for Staphylococcus aureus ATCC 29213. The format is toxicity. As to conditions: HSF cells.
Data set [23] can be described thus: Cytotoxicity against human HSF cells assessed as reduction in cell viability incubated for 72 hrs by MTT assay. The format is cell-based, HSF (VGS). A general note: Tetrazolium assays rely on reduction of a dye to a coloured formazan, in cell work by metabolically active cells.
The nature of data set [24]: Selectivity index, ratio of CC50 for human HSF cells to MIC for Pseudomonas aeruginosa ATCC 27853. The format is toxicity. The conditions noted are these: HSF cells.
Data set [25] is described as follows: Selectivity index, ratio of CC50 for human HSF cells to MIC for Klebsiella pneumoniae ATCC 1813. The format is toxicity. As to conditions: HSF cells.
The subject of data set [26] is Pseudomonas aeruginosa. Kind of data set: Antibacterial activity against Pseudomonas aeruginosa ATCC 27853 assessed as reduction in bacterial growth incubated for 24 hrs by CLSI broth microdilution method. The format is functional. The conditions noted are these: Pseudomonas aeruginosa, ATCC 27853, 24 h, read-out: MIC.
Data set [27] deals with Staphylococcus epidermidis. Nature of the data set: Antibacterial activity against Staphylococcus epidermidis assessed as reduction in bacterial growth incubated for 24 hrs by CLSI broth microdilution method. The format is functional. As to conditions: Staphylococcus epidermidis, read-out: MIC.
In data set [28] the test system is Escherichia coli. Nature of the data set: Antibacterial activity against Escherichia coli ATCC 25922 assessed as reduction in bacterial growth incubated for 24 hrs by CLSI broth microdilution method. The format is functional. As to conditions: Escherichia coli, ATCC 25922, 24 h, read-out: MIC.
In data set [29] the test system is Klebsiella pneumoniae. Kind of data set: Antibacterial activity against Klebsiella pneumoniae ATCC 1813 assessed as reduction in bacterial growth incubated for 24 hrs by CLSI broth microdilution method. The format is functional. The conditions noted are these: Klebsiella pneumoniae, ATCC 1813, 24 h, read-out: MIC.
Data set [30] in a line: Selectivity index, ratio of CC50 for human HSF cells to MIC for Bacillus subtilis 168. The conditions noted are these: HSF cells. The format is toxicity.
Data set [31] in a line: Selectivity index, ratio of CC50 for human HSF cells to MIC for Staphylococcus epidermidis. The format is toxicity. The conditions noted are these: HSF cells.
Data set [32] is described as follows: Selectivity index, ratio of CC50 for human HSF cells to MIC for Escherichia coli ATCC 25922. The format is toxicity.
The test system of data set [33] is Staphylococcus aureus. Nature of the data set: Antibacterial activity against Staphylococcus aureus ATCC 29213 assessed as reduction in bacterial growth incubated for 24 hrs by CLSI broth microdilution method. The format is functional. The conditions noted are these: Staphylococcus aureus, ATCC 29213, 24 h, read-out: MIC.
[34] abbreviates: Bacillus subtilis, 168, 24 h, read-out: MIC.

Consider `CCCCCCCC[N+](C)(C)CCCNC(=O)COc1c2cc(C(C)(C)C)cc1Sc1cc(C(C)(C)C)cc(c1OCC(=O)NCCC[N+](C)(C)CCCCCCCC)Sc1cc(C(C)(C)C)cc(c1OCC(=O)NCCC[N+](C)(C)CCCCCCCC)Sc1cc(C(C)(C)C)cc(c1OCC(=O)NCCC[N+](C)(C)CCCCCCCC)S2.[Cl-].[Cl-].[Cl-].[Cl-]`, for which the MIC in the data set on Pseudomonas was 16 µg/mL; in the data set on Staphylococcus aureus [1] it was 16 µg/mL; in the data set with Bacillus subtilis [3] (24 h) it was 4 µg/mL; with Bacillus subtilis [3] (setting [34]), 2 µg/mL; in data set [5], 16 µg/mL; in the data set on Acinetobacter [6], 16 µg/mL. Also, the MIC in the data set on Staphylococcus aureus [7] was 16 µg/mL; with Acinetobacter [10] it was 16 µg/mL; with Proteus sp., 64 µg/mL; in data set [12] it was 16 µg/mL; with Staphylococcus aureus [13], 4 µg/mL; in the data set on Staphylococcus aureus [14] it was 16 µg/mL. The MIC is 16 µg/mL in data set [15]; 16 µg/mL in data set [16]; 8 µg/mL with Acinetobacter [17]; 2 µg/mL in [18]; 16 µg/mL in the data set with Klebsiella sp. [20]; 16 µg/mL with Klebsiella sp. [21]. The MBC in the data set on Staphylococcus aureus [2] is 1 µg/mL; in the data set with Klebsiella pneumoniae [4] it was 32 µg/mL; in data set [8], 2 µg/mL; in the data set with Bacillus subtilis [9] it was 16 µg/mL; in the data set on Escherichia coli [11], 16 µg/mL; with Pseudomonas aeruginosa [19] it was 32 µg/mL.

For `[H]/N=C(\N/C(=N/[H])NCCCCCCNC(=N)NC(=N)Nc1ccc(Cl)cc1)Nc1ccc(Cl)cc1` [CHLORHEXIDINE], the selectivity ratio in [22] was found to be 2.74; in data set [24] it was 1.37; in data set [25] it was 2.74; in data set [30] it was 2.74; in [31], 5.48; in data set [32], 5.48. Further, the CC50 at 72 h in [23] was found to be 5.48 µg/mL (≈ 10.8 µM). In addition, the MIC in the data set on Bacillus subtilis [3] (setting [34]) amounted to 2 µg/mL (≈ 3.96 µM); with Pseudomonas aeruginosa [26], 4 µg/mL (≈ 7.91 µM); in data set [27], 1 µg/mL (≈ 1.98 µM); in the data set with Escherichia coli [28], 1 µg/mL (≈ 1.98 µM); in the data set with Klebsiella pneumoniae [29] it was 2 µg/mL (≈ 3.96 µM); in the data set with Staphylococcus aureus [33], 2 µg/mL (≈ 3.96 µM).

For the compound `CCCCCCCCCCCCCC(=O)NCCC[N+](C)(C)Cc1ccccc1.[Cl-]` [MIRAMISTIN], the MIC in the data set with Pseudomonas is over 64 µg/mL; with Staphylococcus aureus [1] it was 4 µg/mL; with Bacillus subtilis [3] (setting [34]) it was 8 µg/mL; in data set [5], 64 µg/mL; with Acinetobacter [6], over 64 µg/mL; in the data set on Staphylococcus aureus [7], 16 µg/mL. Moreover, the MIC was 64 µg/mL with Pseudomonas aeruginosa [26]; 64 µg/mL with Acinetobacter [10]; over 64 µg/mL in the data set with Proteus sp.; 4 µg/mL in [27]; 64 µg/mL in [12]; 0.5 µg/mL in the data set with Staphylococcus aureus [13]. In addition, the MIC was determined as 64 µg/mL in the data set with Escherichia coli [28]; 64 µg/mL in the data set on Klebsiella pneumoniae [29]; 8 µg/mL with Staphylococcus aureus [14]; 64 µg/mL in [15]; 32 µg/mL in [16]; 64 µg/mL with Acinetobacter [17]. In addition, the MIC in [18] is 8 µg/mL; in the data set on Klebsiella sp. [20], 64 µg/mL; in the data set with Staphylococcus aureus [33], 16 µg/mL; in the data set on Klebsiella sp. [21] it was over 64 µg/mL. The selectivity ratio was found to be 0.6 in [22]; 0.15 in [24]; 0.15 in data set [25]; 1.2 in [30]; 2.4 in [31]; 0.15 in data set [32]. The MBC in the data set on Staphylococcus aureus [2] came to 32 µg/mL; with Klebsiella pneumoniae [4], 64 µg/mL; in data set [8] it was 32 µg/mL; in the data set with Bacillus subtilis [9], 64 µg/mL; in the data set on Escherichia coli [11], 64 µg/mL; with Pseudomonas aeruginosa [19], 64 µg/mL. In addition, the CC50 at 72 h in data set [23] worked out at 9.4 µg/mL.

The MIC is the least concentration at which growth counts as inhibited. As usually defined, the MBC is the lowest tested concentration that kills the bacteria rather than only halting them. What is called CC50 is the concentration giving 50% cytotoxicity.
